Reference: US20060234909A1, “Compositions and methods for increasing drug efficiency” (priority 2003, published 2006)
pEC50: −log10 of the molar value. Primed or numbered codes have the meaning given here. * marks the point of attachment. 10Ca = carbamate linkage conjugating the peptide-PEG to paclitaxel at C10; PEG(13)″ = PEG(13) linker; Cbz = O=C(OCc1ccccc1)*; Piv = CC(C)(C)C(=O)*; OBn = c1ccc(CO*)cc1; PXL = paclitaxel

Assays:
tubulin = assay: Fluorescence-based tubulin polymerization assay (MPA; enhancement for paclitaxel, inhibition for vinblastine); assay type: biochemical
Excerpt: Drug-linker constructs may further be screened using functional assays predictive of biological activity. […] Tubulin assembly or inhibition thereof may be monitored by fluorescence using the CytoDYNAMIX Screen™ 10 kit available from Cytoskeleton (1830 S. Acoma St., Denver, Colo.). […] Emission is monitored at 405 nm with excitation at 360 nm. […] Tubulin assembly or inhibition may also be monitored by light scattering which is approximated by the apparent absorption at 350 nm. For paclitaxel drug conjugates BSA is employed to prevent aggregation and glycerol, which is a tubulin polymerization enhancer, is omitted from the kit to increase the signal to noise ratio.
The assay kit (#BK011) was purchased from Cytoskeleton (Denver, Colo.). The assays were carried out according to the manufacturer's instructions, except that 1 mg/ml BSA (Sigma #A3059) was included in all assays. […] Parent drugs and conjugates were tested at 0.75, 1.5, 3 and 10 micromolar final concentration and results represent a comparison of conjugate and parent drug curves obtained from the linear range of the dose responses.
(±SD) represent the average of all tests carried out for all lots of a given compound.

[1] = system: Normal human foreskin fibroblasts (HFF); settings: read-out: HFF (EC50 Ave) ML; HFF, ML (monolayer)
MCF-7 breast carcinoma = assay: Cytotoxicity assay (monolayer), MCF-7; assay type: cell-based; settings: MCF7, ML (monolayer); read-out: MCF7 (EC50 Ave) ML;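 further: cells treated 72 h with 6-8 compound doses versus DMSO vehicle controls, EC50 fitted by 4-parameter dose-response curves, averaged across all tests and lots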
HT-29 cells = settings: read-out: HT29 (EC50 Ave) SA; HT29, SA (soft agar)
[2] = system: HT-29 colorectal carcinoma; assay: Cytotoxicity assay (monolayer), HT-29; assay type: cell-based; settings: HT29, ML (monolayer); read-out: HT29 (EC50 Ave) ML;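 further: monolayer cultures tested in triplicate, compound exposure for three days against DMSO vehicle controls, EC50 fitted from dose-response curves and averaged across all tests and lots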
MCF-7 cells = settings: read-out: MCF7 (EC50 Ave) SA; MCF7, SA (soft agar)
HUVEC = assay: Cytotoxicity assay (monolayer), HUVEC; assay type: cell-based; settings: ML (monolayer), read-out: HUVEC (EC50 Ave) ML
Human Src = molecular target: T1, Human Src (Homo sapiens, UniProt P12931); assay: Src kinase assay (PKLight ATP utilization, substrate phosphorylation as % of parent peptide); assay type: biochemical
T1 construct: purchased Upstate (Charlottesville, Va.) 14-326
Description: Another test may involve monitoring the consumption of ATP. For example, ATP concentrations at time 0 or after 4 hour incubation may be monitored by luciferase reaction (PKLight kit obtained from Cambrex Corporation, One Meadowlands Plaza, East Rutherford, N.J. 07073), which generate a luminescence readout in the presence of ATP. Assays are initiated by mixing a kinase and a peptide in the presence of 40 μM ATP. After 4 hour of incubation at 30° C., PKLight reagent is added and mixed well, and luminescence readout measured. The rate of peptide phosphorylation is then directly related to the rate of decrease in the observed luminescence. Based on the first test, linkers of appropriate lengths and peptides with an effective amount of kinase activity which may be expected to be retained in the drug conjugate may be found.
Human Src (#14-326) and Akt (#14-276) kinases were purchased from Upstate (Charlottesville, Va.). Kinase reactions were carried out in 50 μl kinase reaction cocktail (25 mM Tris-HCl, pH 7.5, 5 μM β-glycerophosphate, 2 mM DTT, 0.1 mM Na3VO4, 10 mM MgCl2, 1 mg/ml BSA, […], 0.5 to 1.0 units enzyme). Substrates (peptide or drug-peptide conjugate in […]) were added (25, 50 and 100 μM) and the reaction was incubated for 2-5 hours at 30° C. PKLight reagent (23 μl) (Cambrex BioSciences, Rockland, Me.) was mixed with […] of the above kinase reaction and ATP utilization relative to no substrate and no ATP controls was determined by measuring luminescence with a SpectraMax Gemini EM plate reader (Molecular Devices, Sunnyvale, Calif.). Peptide substrates for Src and Akt have been described. For examples, see Lou et al. Letters in Peptide Science, 2, 289-296 (1995); Lou et al. Bioorganic & Medicinal Chemistry, 4, 677-682 (1996); Alessi et al. FEBS Letters, 399, 333-338 (1996). Substrate phosphorylation potential was determined from the linear portion of the substrate concentration dose response as a percentage of the activity observed with the parent peptide used for drug conjugation.

| Compound | Ave. MPA Act. (tubulin) | pEC50 [1] | pEC50 (MCF-7 breast carcinoma) | pEC50 (HT-29 cells) | pEC50 [2] | pEC50 (MCF-7 cells) | pEC50 (HUVEC) | Average src kinase activity (Human Src) |
| --- | --- | --- | --- | --- | --- | --- | --- | --- |
| CC[C@]1(O)C[C@@H]2CN(CCc3c([nH]c4ccccc34)[C@@](C(=O)OC)(c3cc4c(cc3OC)N(C)[C@H]3[C@@](O)(C(=O)NCCCCCCCCCCCCN)[C@H](O)[C@]5(CC)C=CCN6CC[C@]43[C@@H]65)C2)C1 [VBL-3Am-ALK(12)-NH2] | B (B=50-80) | > 7.70 | > 7.70 | > 7.70 | > 7.70 | > 7.70 | > 7.70 | – |
| CC(=O)O[C@@]12CO[C@@H]1C[C@H](O)[C@@]1(C)C(=O)[C@H](OC(=O)CCCCCCNC(=O)OCc3ccccc3)C3=C(C)[C@@H](OC(=O)[C@H](O)[C@@H](NC(=O)c4ccccc4)c4ccccc4)C[C@@](O)([C@@H](OC(=O)c4ccccc4)[C@H]21)C3(C)C [PXL-10Es-Alk(6)-NH(Z)] | A (A<50) | > 7.70 | > 7.70 | > 7.70 | > 7.70 | > 7.70 | > 7.70 | – |
| Pv-E(Bzl)YIYGSFK(CBz)-PEG(13)-10Ca-PXL (Piv-E(OBn)YIYGSFK(Cbz)-{PEG(13)″-10Ca-PXL}; also: TFA salt) | A (A<50) | < 7.00 | < 7.00 | < 7.00 | < 7.00 | 7.00 to 7.70 | < 7.00 | A (A<20) |
| CC[C@]1(O)C[C@@H]2CN(CCc3c([nH]c4ccccc34)[C@@](C(=O)OC)(c3cc4c(cc3OC)N(C)[C@H]3[C@@](O)(C(=O)NN)[C@H](O)[C@]5(CC)C=CCN6CC[C@]43[C@@H]65)C2)C1 [Desacetylvinblastine monohydrazine] | C (C>80) | > 7.70 | > 7.70 | > 7.70 | > 7.70 | > 7.70 | > 7.70 | – |
| CC[C@]1(O)C[C@@H]2CN(CCc3c([nH]c4ccccc34)[C@@](C(=O)OC)(c3cc4c(cc3OC)N(C)[C@H]3[C@@](O)(C(=O)NCCCCCCCCN)[C@H](O)[C@]5(CC)C=CCN6CC[C@]43[C@@H]65)C2)C1 [VBL-3Am-ALK(8)-NH2] | B (B=50-80) | > 7.70 | > 7.70 | > 7.70 | > 7.70 | > 7.70 | > 7.70 | – |
| CC(=O)O[C@H]1C(=O)[C@]2(C)[C@@H](OC(=O)NCCCCCCN)C[C@H]3OC[C@@]3(OC(C)=O)[C@H]2[C@H](OC(=O)c2ccccc2)[C@]2(O)C[C@H](OC(=O)[C@H](O)[C@@H](NC(=O)c3ccccc3)c3ccccc3)C(C)=C1C2(C)C [PXL-7Ca-ALK(6)-NH2] | A (A<50) | > 7.70 | 6.00 to 7.00 | > 7.70 | > 7.70 | > 7.70 | > 7.70 | – |
| Pv-E(DMAB)YIYGSFR-PEG(11)-3Am-VBL (EYIYGSFR) | B (B=50-80) | < 7.00 | 7.00 to 7.70 | 7.00 to 7.70 | < 7.00 | 7.00 to 7.70 | 7.00 to 7.70 | A (A<20) |
| CC[C@]1(O)C[C@@H]2CN(CCc3c([nH]c4ccccc34)[C@@](C(=O)OC)(c3cc4c(cc3OC)N(C)[C@H]3[C@@](O)(C(=O)NCCCCCCCCCCCCNC(=O)OC(C)(C)C)[C@H](O)[C@]5(CC)C=CCN6CC[C@]43[C@@H]65)C2)C1 [VBL-3Am-ALK(12)-NH(B)] | A (A<50) | > 7.70 | 7.00 to 7.70 | > 7.70 | 6.00 to 7.00 | > 7.70 | > 7.70 | – |
| CC(=O)O[C@H]1C(=O)[C@]2(C)[C@@H](OC(=O)CCCCCN)C[C@H]3OC[C@@]3(OC(C)=O)[C@H]2[C@H](OC(=O)c2ccccc2)[C@]2(O)C[C@H](OC(=O)[C@H](O)[C@@H](NC(=O)c3ccccc3)c3ccccc3)C(C)=C1C2(C)C [PXL-7Es-ALK(5)-NH2] | A (A<50) | > 7.70 | 6.00 to 7.00 | > 7.70 | 6.00 to 7.00 | > 7.70 | > 7.70 | – |
| BOC-EYIYGSFK(BOC)-PEG(11)-3Am-VBL (N-BOC; BOC side chain; PEG(11); vinblastine conjugate) | C (C>80) | < 7.00 | < 7.00 | < 7.00 | < 7.00 | < 7.00 | < 7.00 | B (B=20-40) |
| Ac-YIYGSFR-PEG(11)-3Am-VBL (N-acetyl; PEG(11) linker; vinblastine conjugate) | B (B=50-80) | < 7.00 | 7.00 to 7.70 | < 7.00 | 7.00 to 7.70 | 7.00 to 7.70 | < 7.00 | C (C>40) |
| BOC-YIYGSFR-PEG(11)-3Am-VBL (N-BOC; PEG(11) linker; vinblastine conjugate) | C (C>80) | < 7.00 | < 7.00 | < 7.00 | < 7.00 | < 7.00 | < 7.00 | B (B=20-40) |
| CC[C@]1(O)C[C@@H]2CN(CCc3c([nH]c4ccccc34)[C@@](C(=O)OC)(c3cc4c(cc3OC)N(C)[C@H]3[C@@](O)(C(=O)NCCCCCCNC(=O)OC(C)(C)C)[C@H](O)[C@]5(CC)C=CCN6CC[C@]43[C@@H]65)C2)C1 [VBL-3Am-ALK(6)-NH(B)] | A (A<50) | > 7.70 | > 7.70 | > 7.70 | > 7.70 | > 7.70 | > 7.70 | – |
| CC[C@]1(O)CC2CN(CCc3c([nH]c4ccccc34)[C@@](C(=O)OC)(c3cc4c(cc3OC)N(C)[C@H]3C(O)(C(=O)NCCOCCOCCOCCN)[C@H](O)[C@]5(CC)C=CCN6CCC43[C@@H]65)C2)C1 (stereo partly shown) [VBL-3Am-PEG(11)-NH2] | B (B=50-80) | > 7.70 | 7.00 to 7.70 | > 7.70 | 7.00 to 7.70 | > 7.70 | > 7.70 | – |
| CC(=O)O[C@@]12CO[C@@H]1C[C@H](O)[C@@]1(C)C(=O)[C@H](OC(=O)CCCCCN)C3=C(C)[C@@H](OC(=O)[C@H](O)[C@@H](NC(=O)c4ccccc4)c4ccccc4)C[C@@](O)([C@@H](OC(=O)c4ccccc4)[C@H]21)C3(C)C [PXL-10Es-ALK(5)-NH2] | B (B=50-80) | > 7.70 | > 7.70 | > 7.70 | > 7.70 | > 7.70 | > 7.70 | – |
| C=CCOC(=O)O[C@@H](C(=O)O[C@H]1C[C@@]2(O)[C@@H](OC(=O)c3ccccc3)[C@@H]3[C@]4(OC(C)=O)CO[C@@H]4C[C@H](O)[C@@]3(C)C(=O)[C@H](OC(C)=O)C(=C1C)C2(C)C)[C@@H](NC(=O)c1ccccc1)c1ccccc1 [PXL-2′Alloc] | A (A<50) | > 7.70 | > 7.70 | > 7.70 | > 7.70 | > 7.70 | > 7.70 | – |
| CC[C@]1(O)C[C@@H]2CN(CCc3c([nH]c4ccccc34)[C@@](C(=O)OC)(c3cc4c(cc3OC)N(C)[C@H]3[C@@](O)(C(=O)OC)[C@H](O)[C@]5(CC)C=CCN6CC[C@]43[C@@H]65)C2)C1 [Desacetyl vinblastine] | C (C>80) | > 7.70 | > 7.70 | > 7.70 | > 7.70 | > 7.70 | > 7.70 | – |
